Measurements: ChEMBL document CHEMBL5223118, “Magnet for the Needle in Haystack: "Crystal Structure First" Fragment Hits Unlock Active Chemical Matter Using Targeted Exploration of Vast Chemical Spaces” (J Med Chem, 2022)

What follows are molecules tested against cAMP-dependent protein kinase (PKA) (Homo sapiens, UniProt P22694+P17612+P22612) (assay: Inhibition of PKA (unknown origin)).
Assay type: protein assay

Row | Ki | SMILES
1 | 20000 µM | Cc1cc(C(=O)Nc2ccncc2)c(C)o1
2 | 5000 µM | N#Cc1c(N2CCCC2)n[nH]c1N
3 | 85 µM | N#Cc1c(N)ccc(/C=C2/CCCNC2)c1Cl
4 | 354.3 µM | COC1(CNC(=O)N2CCN(c3ccncc3C)CC2)CCCS(=O)(=O)C1 (stereo unspecified)
5 | 0.74 µM | N[C@H]1CCN(Cc2cccc(-c3ccc4c(O)nccc4c3)c2)C1
6 | 6379 µM | N#Cc1c(N)ccnc1C=C1CCNCC1
7 | 2101 µM | N#Cc1cc(-c2cccc(C3CNCCO3)c2)ccc1N (stereo unspecified)
8 | 5000 µM | NCCC1CN(C(=O)c2ccc(C(N)=O)cc2)c2ccccc21 (stereo unspecified)
9 | 955 µM | N#Cc1cc(-c2cccc(C3COCCN3)c2)ccc1N (stereo unspecified)
10 | 139.3 µM | COCC1CN=C(N2CCN(c3ccncc3Cl)CC2)N1.I (stereo unspecified)
11 | 4743 µM | CC1(CS(=O)(=O)N2CCc3c(sc(N)c3C#N)C2)CC1(F)F (stereo unspecified)
12 | 390.2 µM | N#Cc1cc(-c2cccc(C3(CN)CCOCC3)c2)ccc1N
13 | 588 µM | COc1cc(NCCNc2ccnc(N)c2C#N)cc(OC)c1
14 | 174.4 µM | CN(C)Cc1ccc(F)c(-c2ccc3c(C#N)c(N)[nH]c3c2)c1
15 | 3 µM | N[C@@H]1CCN(Cc2cccc(-c3ccc4c(O)nccc4c3)c2)C1
16 | 154.7 µM | O=c1[nH]ccc2cc(-c3cccc(Cn4cccn4)c3)ccc12
17 | 1423 µM | CCn1cc(-c2csc3c(=O)[nH]ccc23)cn1
18 | 10000 µM | NC1C=C(C(F)(F)F)C=NC1=O (stereo unspecified)
19 | 6219 µM | COCC1CCC(NC(=O)c2ccc3c(c2)CCNC3=O)CC1 (stereo unspecified)
20 | 540 µM | N#Cc1cc(-c2cccc(CC(N)CC3CC3)c2)ccc1N (stereo unspecified)
21 | 0.744 µM | NC1CCN(Cc2cccc(-c3ccc4c(O)nccc4c3)c2)C1 (racemic)
